One assay deals with rats. In words: Reverse passive Arthus reaction (RPA) in rats. To be noted: 3 mg single dose IV, 4 hours; for RPA MPO % Inhib.: myeloperoxidase; for RPA VP % Inhib.: vascular permeability. The format is in vivo, Male Sprague Dawley rats. An excerpt: 3. Reverse Passive Arthus Reaction in Rats
The reverse passive Arthus reaction in rats is a modification of the method by Mulligan et al., as described in J. Clin. Invest. (1991) 88: 1396-1406. This is an experimental model in which the interaction of antigen-antibodycomplexes and complement leads to a severe vasculitis that is associated with edema, induration, erythema and hemorrhage. The interaction between the antigen-antibody complexes and complement leads to a localized influx of neutrophils. These neutrophils release a variety of mediators that are associated with tissue damage and vascular permeability. The localized inflammatory reaction is measured using different techniques i.e., vascular permeability and neutrophil influx which is evaluated both biochemically and microscopically.
Male Sprague Dawley specific pathogen-free rats with jugular vein cannulae (280-320 g, Hill Top Labs, Pa.) are used in these studies. Animals are acclimated for at least 1 day and individually housed in stainless steel cages. The dorsal region of the rats is closely clipped 2 days prior to the experiments and divided into 4 sites on each side of the midline. Prior to all injections the rats are sedated with 0.4 ml per 300 gm rat of ketamine/rompun [1000 mg (10 ml) of ketamine HCL is mixed with 40 mg (2.0 ml) Rompun] administered IP and or inhalation anesthesia with metafane (methoxyflurane).
Bovin Serum Albumin (BSA) and rabbit polyclonal IgG rich in anti-BSA are purchased from Sigma Chemical Co. (St. Louis, Mo.). Radiolabelled ^125 I-BSA (spAct 1-5 μCi/μg) is purchased from Dupont NEN (Boston, Mass.).
Each rat is administered intradermal (ID) injection of (0.4 mg, 0.6 mg and 0.8 mg) anti-BSA in a volume of 100 μl per injection in normal saline. The ID injections are randomized near the mid dorsal region on both sides of the back bone. Immediately after the ID injections of the anti-BSA, the rats are administered intravenous (IV) injections of BSA (10 mg in 1.0 ml) in normal saline containing ^125 I labeled BSA (1 μCi/ml BSA or 5.0 μCi/kg body wt) for quantification of dermal vascular injury. Anti-inflammatory agents such as inhibitors of adhesion molecules of the present invention are administered IV at a single dose of 3 mg immediately after BSA. Four (4) hours after the IV injection of BSA, the rats are anesthetized with metafane and 2 to 3 ml of blood is withdrawn via the cannula into an anticoagulant containing (EDTA or Heparin) tube and plasma separated and saved for neutrophil and albumin quantitation. The rats are killed and the skin surrounding the injection site (15 mm diameter) is punched out and weighed. The skin samples and a fixed volume of plasma (0.1 to 1.0 ml) is analyzed in a gamma-counter for ^125 I content. Skin samples from the contralateral side are processed and analyzed for myeloperoxidase activity (MPO) as a measure of neutrophil accumulation. As needed, samples are also processed for histological evaluation of the reacted sites.
Vascular Permeability (VP)
The calculation of the plasma protein exudation into skin is made by determining the radioactivity in the tissue and relating this to the level of radioactive albumin in the blood at the time of sacrifice. […] [formula]
Percent inhibition of the test compound at 3 mg was determined as follows: [formula] Myeloperoxidase (MPO)
MPO is located in the azurophil granules of polymorphonuclear leukocytes (PMN). Because of its abundance in these cells (5% dry weight), this enzyme is used as a marker for tissue neutrophil content. For tissue MPO content, the method of Bradley, et al., was used as described in J. Invest. Dermatol. (1982) 78: 206-209. Biopsies from each treatment group were placed in plastic tubes (15×100 mm) containing 10 ml of 0.5% hexadecyltrimethylammonium bromide (HTAB) in 0.05M potassium phosphate buffer pH 6.0. The tissue was then homogenized with a Brinkmann Polytron homogenizer (10s). […]

In the next assay the target is T1, P-selectin Rg (Homo sapiens, UniProt P16109).
T1 construct: consists of the human lectin domain, the EGF domain, and two complement repeats of the human selectins; made in house
Nature of the assay: HL-60 cell binding to P-selectin Rg. The format is cell-based. To be noted: HL-60 cells, binding to P-selectin Rg coated wells. The protocol:
2. HL-60 Cell Binding to P- and E-Selectin RG
The chimeric P- and E-selectin receptor globulin (Rg) consists of the human lectin domain, the EGF domain, and two complement repeats of the human selectins fused to the hinge, CH1 and CH2 domains of human IgG1. These proteins were prepared as described by Aruffo, et al., Cell (1991) 67: 35-44; Walz, et al., Science (1990) 250, 1132-1135.
The HL-60 cell line, obtained from the American Type Culture Collection, ATCC No. CCL240, was employed to investigate P-selectin Rg binding. Assays were done in 96-well tissue culture dishes. The wells were first coated with 0.5 ug goat anti-human Fc antiserum overnight, and nonspecific binding sites were blocked by incubation of the wells with 1% nonfat dry milk in phosphate buffered saline (PBS containing 0.9 mM CaCl2 and 0.8 mM MgSO4) for 30 minutes. The Rg was then bound to the anti Fc-coated wells by incubating 50 ng in 50 ul of PBS for two hours. Cells, washed twice and resuspended in PBS to remove traces of medium components, were labeled with 10 uM calcein acetoxy methyl ester for 30 minutes at 3×10^7 cells per ml at room temperature. Serum-containing medium (RPMI with 20% fetal calf serum) was added, and the cells washed, followed by resuspension in PBS and a further spin. The labeled cells, resuspended in PBS, were added to twice washed Rg-containing wells at 200,000 per well. Following a 30 minute incubation with slow shaking, the wells were aspirated and washed three times with PBS to remove unbound cells. To certain wells were added known numbers of cells for determination of a standard curve of fluorescent units per cell. The fluorescence on the plate was quantitated using a fluorescent plate reader. Following subtraction of a blank representing the binding of cells to non-Rg containing wells (<5000 cells), the specific binding to P- or E- selectin was determined.
Inhibitors of cell binding
Test compounds were prepared by dissolution to a final concentration of 20 mg/ml in dimethyl sulfoxide (DMSO), diluted in PBS to 2 mg/ml, and briefly sonicated prior to use. The Rg coated wells were preincubated at room temperature for 15 minutes with the inhibitor, and 200,000 cells were added to yield the final indicated inhibitor concentration in 160 ul of PBS. The data is obtained as percent inhibition of specific binding: [formula] and a plot of dose vs. percent inhibition of Rg binding is generated in which IC50 (μM) is calculated and reported in Table 1.

Another assay concerns the target T2, P-selectin (Homo sapiens, UniProt P16109).
T2 construct: consists of the human lectin domain, the EGF domain, and two complement repeats of the human selectins; made in house
In words: P-selectin binding ELISA to immobilized sulfatides (cell free). Conditions: inhibition of P-selectin binding to immobilized sulfatide. The protocol: Based on the availability of soluble forms of P-selectin prepared as described by Aruffo, A., et al., Cell, 67, 35-44 (1991), a binding ELISA based assay modified from Foxall, et al., J., Cell Biol., 117, 895-902 (1992) was developed to measure inhibitors of P-selectin binding to immobilized sulfatides. Such inhibitors were tested in the assay described below.
0.1 ml of sulfatide (SIGMA) or lysosulfatide (SIGMA) each at 1 μg/ml in MeOH were added to the wells of a 96-well ELISA plate (ProBind, Falcon) and allowed to dry overnight at room temperature. The next day the antigen coated plates were blocked for 1.5 hours at room temperature with 5% BSA (ICN) in buffer containing 20 mM Hepes and 0.15M NaCl, pH 8.0. Wild type P-selectin and mutants thereof were first mixed with HRP-conjugated goat anti-human lgG (Fisher Scientific), serially diluted and then incubated for 30 minutes at 37° C. in buffer containing 20 mM Hepes, 0.15M NaCl, 1% BSA and 0.8 mM CaCl2, pH 8.0 prior to addition to the BSA blocked plates. Following the 30 minute preincubation, the fusion protein-HRP conjugate immunocomplexes were incubated on the blocked antigen coated plates for 45 minutes at 37° C. in the presence or absence of the test compounds and then washed to remove any unbound proteins. Bound complexes were detected by addition of substrate buffer (95 mM NaOAc.3H2 O, 5 mM citric acid monohydrate, 1.4 mM urea/H2O2) containing 3, 3', 5, 5' Tetramethylbenzidine (SIGMA). Reactions were stopped by the addition of 3N sulfuric acid and the absorbance read on an ELISA reader at dual wavelengths 450 and 630 nm. The efficacy of these compounds was compared to that of sulfatide (positive control) or to lysosulfatide (negative control). The data is obtained as percent inhibition of specific binding [formula] and a plot of dose vs. percent inhibition of Rg binding is generated in which IC50 (μM) is calculated and reported as cell free data in Table 1.
In general terms: In an ELISA, binding on a coated surface is turned into a signal by an enzyme label.

The structures appear in SMILES notation.

A word on the IC50: it is the concentration at which inhibition is half-maximal.

T2 sequence (P16109 with tags, fused parts or gaps limits assumed): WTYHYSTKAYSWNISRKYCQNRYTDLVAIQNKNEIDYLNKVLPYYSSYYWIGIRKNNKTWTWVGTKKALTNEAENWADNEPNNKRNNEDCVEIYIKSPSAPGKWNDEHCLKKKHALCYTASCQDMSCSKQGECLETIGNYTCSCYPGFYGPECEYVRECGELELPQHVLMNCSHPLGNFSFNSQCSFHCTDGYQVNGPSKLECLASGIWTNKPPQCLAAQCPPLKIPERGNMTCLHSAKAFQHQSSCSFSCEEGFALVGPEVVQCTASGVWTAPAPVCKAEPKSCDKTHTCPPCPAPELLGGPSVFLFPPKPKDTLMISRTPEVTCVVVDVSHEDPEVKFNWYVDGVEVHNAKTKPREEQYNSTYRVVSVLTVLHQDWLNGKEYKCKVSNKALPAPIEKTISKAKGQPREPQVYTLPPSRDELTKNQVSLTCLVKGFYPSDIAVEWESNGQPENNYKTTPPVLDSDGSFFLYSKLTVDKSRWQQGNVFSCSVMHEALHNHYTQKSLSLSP
T1 sequence (P16109 with tags, fused parts or gaps limits assumed): as above

For `CCCCCCCCCCCCC/C=C/[C@@H](OC(=O)c1ccccc1)[C@H](CO[C@H]1O[C@H](COS(=O)(=O)O)[C@H](OS(=O)(=O)O)[C@H](OCc2ccccc2)[C@H]1OCc1ccccc1)NC(=O)CCCCCCCCCCCCCCC` [Example 11, (2S,3R,4E)-2-Hexadecanoylamino-3-benzoyloxy-1-[2,3-di-O-benzyl-4,6-di-O-(sodiumoxysulfonyl)-α-D-galactopyranosyloxy]-4-octadecene], in the assay on rats, the “RPA MPO % Inhib.” value was determined as 53.7% and the “RPA VP % Inhib.” value is given as 32%. Besides, at P-selectin Rg, the IC50 came out at 8.9 µM. Further, the IC50 on P-selectin worked out at 1.7 µM.
Regarding `CCCCCCCCCCCCC/C=C/[C@@H](OC(=O)c1ccccc1)[C@H](CO[C@H]1O[C@H](COS(=O)(=O)O)[C@H](O)[C@H](O)[C@H]1OS(=O)(=O)O)NC(=O)CCCCCCCCCCCCCCC` [Example 15, (2S,3R,4E)-3-Benzoyloxy-2-hexadecanoylamino-1-[2,6-di-O-(sodiumoxysulfonyl)-α-D-galactopyranosyloxy]-4-octadecene], the “RPA MPO % Inhib.” value in the assay with rats amounted to 0%. In addition, the “RPA VP % Inhib.” value in the assay on rats is 50%. Besides, the IC50 at P-selectin Rg was 5.2 µM; on P-selectin, 2.2 µM.
On to `CCCCCCCCCCCCC/C=C/[C@@H](OC(=O)c1ccccc1)[C@H](CO[C@H]1O[C@H](COS(=O)(=O)O)[C@@H](OS(=O)(=O)O)[C@H](OC(=O)c2ccccc2)[C@H]1OC(=O)c1ccccc1)NC(=O)CCCCCCCCCCCCCCC` [Example 7, (2S,3R,4E)-3-Benzoyloxy-2-hexadecanoylamino-1-[-2,3-di-O-benzoyl-4,6-di-O-(sodiumoxysulfonyl)-α-D-glucopyranosyloxy]-4-octadecene], for which, in the assay on rats, the “RPA MPO % Inhib.” value was found to be 97% and the “RPA VP % Inhib.” value stood at 88%. The IC50 on P-selectin Rg came to 11 µM. On P-selectin, the IC50 was around 0.4 µM.
As for `CCCCCCCCCCCCC/C=C/[C@@H](OC(=O)c1ccccc1)[C@H](CO[C@H]1O[C@H](COS(=O)(=O)O)[C@H](OS(=O)(=O)O)[C@H](OC(=O)c2ccccc2)[C@H]1OC(=O)c1ccccc1)NC(=O)CCCCCCCCCCCCCCC` [Example 1, (2S,3R,4E)-3-Benzoyloxy-2-hexadecanoylamino-1-[2,3-di-O-benzoyl-4,6-di-O-(sodiumoxysulfonyl)-α-D-galactopyranosyloxy]-4-octadecene], in the assay with rats, the “RPA MPO % Inhib.” value worked out at 97% and the “RPA VP % Inhib.” value turned out to be 68%. This compound displayed an IC50 on P-selectin Rg of 8.3 µM. Moreover, the IC50 on P-selectin stood at 0.3 µM.
Take `CCCCCCCCCCCCC/C=C/[C@@H](OC(=O)c1ccccc1)[C@H](CO[C@H]1O[C@H](COS(=O)(=O)O)[C@H](OS(=O)(=O)O)[C@H](OS(=O)(=O)O)[C@H]1OS(=O)(=O)O)NC(=O)CCCCCCCCCCCCCCC` [Example 23, (2S,3R,4E)-3-Benzoyloxy-2-hexadecanoylamino-1-[2,3,4,6-tetra-O-(sodiumoxysulfonyl)-α-D-galactopyranosyloxy]-4-octadecene]: in the assay with rats, the “RPA MPO % Inhib.” value was 26.4% and the “RPA VP % Inhib.” value came to 0%. Besides, the IC50 at P-selectin Rg is 2.6 µM. The compound also returned an IC50 at P-selectin above 8 µM.
On to `CCCCCCCC/C=C\CCCCCCCCCCCCCC(=O)N[C@@H](CO[C@H]1O[C@H](COS(=O)(=O)O)[C@H](OS(=O)(=O)O)[C@H](O)[C@H]1O)[C@H](O)/C=C/CCCCCCCCCCCCC` [Example 4, (2S,3R,4E)-3-Hydroxy-2-(cis-15-tetracosenoylamino)-1-[4,6-di-O-(sodiumoxysulfonyl)-α-D-galactopyranosyloxy]-4-octadecene], for which the IC50 came to 8 µM on P-selectin Rg and 9 µM at P-selectin.
For the compound `CCCCCC/C=C/[C@@H](OC(=O)c1ccccc1)[C@H](CO[C@H]1O[C@H](COS(=O)(=O)O)[C@H](OS(=O)(=O)O)[C@H](OC(=O)c2ccccc2)[C@H]1OC(=O)c1ccccc1)NC(=O)CCCCC` [Example 10, (2S,3R,4E)-1-[2,3-di-O-benzoyl-4,6-Di-O-(sodiumoxysulfonyl)-α-D-galactopyranosyloxy]-3-benzoyloxy-2-hexanoylamino-4-undecene], the “RPA MPO % Inhib.” value in the assay on rats was 71.6%. Besides, the “RPA VP % Inhib.” value in the assay with rats was 11%. For the same compound, the IC50 at P-selectin Rg is 8 µM; on P-selectin, above 6.1 µM.

The values are drawn from patent US5663151A, “Sulfated α-glycolipid derivatives as cell adhesion inhibitors” (Bristol-Myers Squibb Company, priority 1995, dated 1997).
